Experiment in all cases: NCI-60 cell line screen, 48 h
Assay [1] has as its system KM12.
For assay [2], the system named is U-251.
The test system of assay [3] is Malme-3M.
Assay [4] has as its system HCT-116.
In assay [5] the test system is HL-60.
For assay [6], the system named is NCI-H460.
In assay [7] the test system is MDA-MB-231.
For assay [8], the system named is SK-MEL-28.
Assay [9] has as its system NCI-H23.
Assay [10] concerns HOP-62.
Assay [11] deals with HCT-15.
Assay [12] has as its system LOX IMVI.
Assay [13] has as its system UACC-257.
Assay [14] concerns OVCAR-3.
Assay [15] concerns SR.
For assay [16], the system named is RPMI-8226.
Assay [17] deals with MCF7.
Assay [18] concerns ACHN.
Assay [19] has as its system SF-295.
For assay [20], the system named is SW-620.

The source of these data is ChEMBL document CHEMBL1201862, “PubChem BioAssay data set” (2004).

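Values below derive from 48-hour exposures of cells grown in 96-well plates, with endpoints linearly interpolated between the two concentrations bracketing the appropriate inhibition level. GI50: concentration for 50% inhibition of growth.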 Activity calls are given as the source filed them. Cut-off read from the data, not from the text of the source: active = GI50 up to about 1.1 µM and inactive = higher. Bounds are passed on as bounds.

Turning to `CS(=O)(=O)c1cc(=O)c2ccccc2s1`, the GI50 in [1] was 15.5 µM (inactive); in assay [2] it was 19.7 µM (inactive); in assay [3], 1.8 µM (inactive); in assay [4] it was 1.96 µM (inactive); in assay [5], 1.84 µM (inactive); in assay [6], 18.1 µM (inactive). Besides, the GI50 in assay [7] was 15 µM (inactive); in assay [8], 3.72 µM (inactive); in [9], 9.06 µM (inactive); in [10] it was 20.5 µM (inactive); in [11], 2.25 µM; in [12], 6.68 µM (inactive). Besides, the GI50 in assay [13] is 3.54 µM (inactive); in assay [14], 2.61 µM (inactive); in [15], 2.07 µM (inactive); in assay [16], 2.42 µM (inactive); in assay [17], 2.72 µM (inactive); in [18], 2.74 µM (inactive). Moreover, the GI50 was 13.7 µM (inactive) in [19] and 1.86 µM (inactive) in assay [20].
Consider `Cn1ccc2c(c1=O)C(=O)OC2(C)C` [CERPEGIN], for which the GI50 is > 100 µM (inactive) in assay [1]; > 100 µM (inactive) in [2]; 65.6 µM (inactive) in assay [3]; > 100 µM (inactive) in assay [4]; > 100 µM (inactive) in assay [5]; > 100 µM (inactive) in assay [6]. Also, the GI50 in [7] is > 100 µM (inactive); in assay [8] it was > 100 µM (inactive); in assay [9] it was > 100 µM (inactive); in [10] it was > 100 µM (inactive); in assay [11], above 100 µM; in assay [12], > 100 µM (inactive). The GI50 in assay [13], in [14], in [15], in [16], in assay [17] and in assay [18] was > 100 µM (inactive) in each case. The GI50 in [19] and in [20] was > 100 µM (inactive) each time.
For the molecule `CCO[C@@]12CCC3CC4CC[C@@](OCC)(O1)C4C32` (stereo not given in full), the GI50 in assay [1], in assay [2], in assay [3], in assay [4], in assay [5] and in [6] was > 100 µM (inactive) throughout. In addition, the GI50 in assay [7] is > 100 µM (inactive); in assay [8], > 100 µM (inactive); in assay [9], > 100 µM (inactive); in assay [10] it was > 100 µM (inactive); in assay [11], above 100 µM; in [12] it was > 100 µM (inactive). In addition, the GI50 in assay [13], in assay [14], in assay [15], in assay [16], in [17] and in assay [18] was > 100 µM (inactive) throughout. The GI50 in assay [19] and in assay [20] was > 100 µM (inactive) throughout.
Regarding `COC(=O)C1=CC2CCCC1(O)C(C(C)=O)C2` (stereo not given), the GI50 in [1] is > 81.1 µM (inactive); in assay [2], 63.2 µM (inactive); in assay [3], > 100 µM (inactive); in assay [4], 62.1 µM (inactive); in assay [5], 24.2 µM (inactive); in assay [6] it was > 85.1 µM (inactive). The GI50 is 46.6 µM (inactive) in assay [7]; > 100 µM (inactive) in assay [8]; > 77.1 µM (inactive) in assay [9]; > 75 µM (inactive) in [10]; above 66.5 µM in assay [11]; 16.6 µM (inactive) in [12]. Moreover, the GI50 in assay [13] was > 100 µM (inactive); in assay [14] it was > 100 µM (inactive); in assay [15], 31.3 µM (inactive); in [16] it was 25.1 µM (inactive); in assay [17], > 79.6 µM (inactive); in assay [18], > 100 µM (inactive). Also, the values for the GI50 in assay [19] and in [20] were > 67.5 µM (inactive) and > 61.8 µM (inactive), respectively.
`Clc1ccc(-c2nc3cc(Cl)ccc3[nH]2)cc1`: the GI50 was 24 µM (inactive) in assay [1]; 31.5 µM (inactive) in assay [2]; 48.2 µM (inactive) in assay [3]; 22.9 µM (inactive) in assay [4]; 39.9 µM (inactive) in assay [5]; 31.3 µM (inactive) in assay [6]. In addition, the GI50 is > 100 µM (inactive) in [7]; 47.9 µM (inactive) in assay [8]; 27.6 µM (inactive) in [9]; 34.4 µM (inactive) in [10]; 30.3 µM in [11]; 29.1 µM (inactive) in assay [12]. Further, the GI50 in assay [13] was 43.3 µM (inactive); in assay [14], 28.9 µM (inactive); in assay [15], 32.7 µM (inactive); in assay [16] it was 26.8 µM (inactive); in assay [17] it was 35.6 µM (inactive); in assay [18] it was 39.8 µM (inactive). The GI50 was 28.2 µM (inactive) in assay [19] and 42.6 µM (inactive) in assay [20].
Turning to `COc1cc(OC)c2nc3occc3c(OC)c2c1`, the GI50 in assay [1] was > 100 µM (inactive); in assay [2], > 100 µM (inactive); in assay [3], > 100 µM (inactive); in assay [4], 76 µM (inactive); in assay [5], 94.8 µM (inactive); in [6] it was 78 µM (inactive). For the same molecule, the GI50 is > 100 µM (inactive) in assay [7]; > 100 µM (inactive) in assay [8]; > 100 µM (inactive) in [9]; > 100 µM (inactive) in assay [10]; 30.4 µM in assay [11]; 83.2 µM (inactive) in assay [12]. The GI50 in assay [13] was > 100 µM (inactive); in assay [14], > 100 µM (inactive); in assay [15] it was 55.7 µM (inactive); in assay [16], 27.7 µM (inactive); in assay [17] it was > 100 µM (inactive); in assay [18], 41.7 µM (inactive). The GI50 in assay [19] was 62.8 µM (inactive); in assay [20], > 100 µM (inactive).
